This is an account of results in ChEMBL document CHEMBL4814041, “Anti-fibrotic effects of brevilin A in hepatic fibrosis via inhibiting the STAT3 signaling pathway” (Bioorg Med Chem Lett, 2021).

Experiment [1] has as its system LX-2. Kind of experiment: Anti-fibrotic activity against human LX2 cells assessed as reduction in TGF-1beta-induced fibronectin mRNA expression at 0.25 to 1 ug/ml by qPCR analysis. Format: functional, cell-based. To be noted: dose 0.25-1 µg/ml. On the technique in general: Real-time PCR tracks product formation cycle by cycle.
Experiment [2] addresses Signal transducer and activator of transcription 3 (Homo sapiens) (UniProt P40763). Kind of experiment: Inhibition of STAT3 in human LX2 cells assessed as reduction in TGF-1beta-induced CTGF expression at 0.25 to 1 ug/ml by Western blot analysis. To be noted: dose 0.25-1 µg/ml. The format is cell-based.
For the next experiment, the system named is Influenza A virus. The experiment is described as follows: Antiviral activity against influenza A virus infected in MDCK cells assessed as reduction in plaque number measured after 48 to 72 hrs. The format is functional, organism-based.
Experiment [3] can be described thus: Anticancer activity against human nasopharyngeal carcinoma cells measured upto 72 hrs by MTT assay. The format is functional. Particulars: Nasopharyngeal carcinoma cell line. (In general: Tetrazolium dyes change colour on reduction, which living cells bring about.)
Experiment [4] deals with Signal transducer and activator of transcription 3 (Homo sapiens) (UniProt P40763). The experiment is described as follows: Inhibition of STAT3 in human LX2 cells assessed as reduction in TGF-1beta-induced STAT3 phosphorylation at 0.25 to 1 ug/ml by Western blot analysis. The format is cell-based. Particulars: dose 0.25-1 µg/ml. Background: In western blotting, separated proteins are transferred to a membrane and probed.
Chain of Signal transducer and activator of transcription 3 (Homo sapiens) (P40763 whole entry): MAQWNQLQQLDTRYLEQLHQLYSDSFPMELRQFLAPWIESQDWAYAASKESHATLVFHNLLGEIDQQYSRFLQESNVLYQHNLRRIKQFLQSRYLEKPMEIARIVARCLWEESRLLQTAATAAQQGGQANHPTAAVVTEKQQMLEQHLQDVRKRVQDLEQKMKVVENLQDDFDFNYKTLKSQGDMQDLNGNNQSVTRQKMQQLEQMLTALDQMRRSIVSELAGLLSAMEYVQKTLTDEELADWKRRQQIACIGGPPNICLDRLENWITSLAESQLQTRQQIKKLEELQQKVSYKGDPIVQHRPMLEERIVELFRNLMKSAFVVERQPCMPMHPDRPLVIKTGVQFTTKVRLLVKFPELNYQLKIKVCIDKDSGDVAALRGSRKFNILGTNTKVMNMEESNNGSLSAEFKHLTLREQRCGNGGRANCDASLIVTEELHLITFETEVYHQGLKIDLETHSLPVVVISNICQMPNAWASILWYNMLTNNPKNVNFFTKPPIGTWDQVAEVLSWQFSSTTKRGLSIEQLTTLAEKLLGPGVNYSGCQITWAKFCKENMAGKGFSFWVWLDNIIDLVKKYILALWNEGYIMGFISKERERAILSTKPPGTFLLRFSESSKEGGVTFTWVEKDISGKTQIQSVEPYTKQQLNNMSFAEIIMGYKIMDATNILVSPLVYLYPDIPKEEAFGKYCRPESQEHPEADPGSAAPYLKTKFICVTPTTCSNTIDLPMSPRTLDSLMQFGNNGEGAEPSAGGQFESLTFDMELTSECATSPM

Experiment [5] has as its system LX-2. The experiment is described as follows: Anti-fibrotic activity against human LX2 cells assessed as reduction in TGF-1beta-induced alpha-SMA mRNA expression at 0.25 to 1 ug/ml by qPCR analysis. The format is functional, cell-based. Particulars: dose 0.25-1 µg/ml.
The subject of experiment [6] is LX-2. The experiment is described as follows: Anti-fibrotic activity against human LX2 cells assessed as reduction in TGF-1beta-induced collagen mRNA expression at 0.25 to 1 ug/ml by qPCR analysis. The format is functional, cell-based. To be noted: dose 0.25-1 µg/ml.

Each structure is given as a SMILES string. ≈ marks a conversion by molar mass, not a printed value. Calls of active or inactive are those of the source. The calls are words filed in the database; no cut-off is given here.

For `C/C=C(/C)C(=O)O[C@H]1[C@@H]2[C@H](C)C(=O)O[C@@H]2C[C@@H](C)[C@@H]2C=CC(=O)[C@]21C` [BREVILIN A], the outcome with LX-2 [1], in the experiment with LX-2 [5] and with LX-2 [6] was Active. Also, the inhibition entry in experiment [2] and in experiment [4] was “Active” in each case. The EC50 (usually the concentration needed to bring the measured effect to its halfway point) in the experiment on Influenza A virus worked out at 1.02 µg/mL (≈ 2.94 µM). The IC50 (usually the concentration that inhibits the measured activity by half) in experiment [3] is 3.46 µg/mL (≈ 9.99 µM).
